Data from patent publication US20240150298A1, “ANTIBACTERIAL COMPOUNDS” (Blacksmith Medicines, Inc., priority 2021, published 2024).
Values after ≈ are worked out from the molar mass of the structure shown.

Tests used:
[1] = target: E. coli LpxC (Escherichia coli, UniProt P0A725); assay: LpxC Binding Assay (Rapid Fire MS assay); format: biochemical
Experimental: (§1) IC50 values against E. coli and P. aeruginosa LpxC are determined using a Rapid Fire MS assay as previously described J. Med. Chem. 2012, 55, 1662-1670.

[2] = target: T1, P. aeruginosa LpxC (Pseudomonas aeruginosa, UniProt P47205); assay: LpxC Binding Assay (Rapid Fire MS assay); format: biochemical
T1 sequence (P47205 1-303): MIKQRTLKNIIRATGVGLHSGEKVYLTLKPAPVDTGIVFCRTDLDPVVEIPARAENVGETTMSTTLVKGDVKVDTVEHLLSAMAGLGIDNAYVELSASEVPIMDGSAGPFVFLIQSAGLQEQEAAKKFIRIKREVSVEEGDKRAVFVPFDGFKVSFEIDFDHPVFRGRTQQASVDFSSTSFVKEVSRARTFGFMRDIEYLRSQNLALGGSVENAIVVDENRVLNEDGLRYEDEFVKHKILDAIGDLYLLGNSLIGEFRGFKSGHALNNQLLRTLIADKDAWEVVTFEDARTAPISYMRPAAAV
Experimental: as §1

[3] = test system: P. aeruginosa ATCC27835; assay: Bacterial susceptibility testing, MIC by broth microdilution (CLSI); format: cell-based; details: 35° C., 18-24 h; for MIC: Pseudomonas aeruginosa, ATCC27835, broth microdilution, read-out: MIC P. aeruginosa ATCC27835
Experimental: (§2) Minimal inhibitory concentrations (MIC) were determined by the broth microdilution method in accordance with the Clinical and Laboratory Standards Institute (CLSI) guidelines. In brief, organism suspensions were adjusted to a final inoculum between 3×10^5 and 7×10^5 colony-forming units (CFU)/mL. Drug dilutions and inocula were made in sterile, cation adjusted Mueller-Hinton Broth (Beckton Dickinson). In wells, an inoculum volume of 100 μL was mixed to 2 μL of DMSO with 2-fold serial dilutions of drug. All inoculated microdilution trays were incubated in ambient air at 35° C. for 18-24 h. Following incubation, the lowest concentration of the drug that prevented visible growth (OD600 nm<0.05) was recorded as the MIC. Performance of the assay was monitored by the use of laboratory quality-control strains and compounds with defined MIC spectrum, in accordance with CLSI guidelines.

[4] = test system: K. pneumoniae ATCC13883; assay: as above; format: cell-based; details: 35° C., 18-24 h; for MIC: Klebsiella pneumoniae, ATCC13883, broth microdilution, read-out: MIC K. pneumoniae ATCC13883
Experimental: as §2

[5] = test system: P. aeruginosa 209 PAO1; assay: as above; format: cell-based; details: 35° C., 18-24 h; for MIC: Pseudomonas aeruginosa, PAO1, broth microdilution, read-out: MIC P. aeruginosa 209 PAO1
Experimental: as §2

[6] = test system: E. coli ATCC25922; assay: as above; format: cell-based; details: 35° C., 18-24 h; for MIC: Escherichia coli, ATCC25922, broth microdilution, read-out: MIC E. coli ATCC25922
Experimental: as §2

[7] = target: K. pneumoniae LpxC (Klebsiella pneumoniae subsp. pneumoniae, UniProt A6T4N9); assay: LpxC Binding Assay (Rapid Fire MS assay); format: biochemical
K. pneumoniae LpxC, sequence (A6T4N9 whole entry): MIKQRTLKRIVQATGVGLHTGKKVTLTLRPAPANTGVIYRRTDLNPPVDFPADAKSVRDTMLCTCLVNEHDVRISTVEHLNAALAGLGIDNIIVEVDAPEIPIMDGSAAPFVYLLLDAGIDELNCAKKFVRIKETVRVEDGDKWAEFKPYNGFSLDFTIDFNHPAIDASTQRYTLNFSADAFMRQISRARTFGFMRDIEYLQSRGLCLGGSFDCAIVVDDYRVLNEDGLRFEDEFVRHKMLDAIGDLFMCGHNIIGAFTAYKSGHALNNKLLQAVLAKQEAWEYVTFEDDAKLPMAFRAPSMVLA

E. coli LpxC, sequence (P0A725 whole entry): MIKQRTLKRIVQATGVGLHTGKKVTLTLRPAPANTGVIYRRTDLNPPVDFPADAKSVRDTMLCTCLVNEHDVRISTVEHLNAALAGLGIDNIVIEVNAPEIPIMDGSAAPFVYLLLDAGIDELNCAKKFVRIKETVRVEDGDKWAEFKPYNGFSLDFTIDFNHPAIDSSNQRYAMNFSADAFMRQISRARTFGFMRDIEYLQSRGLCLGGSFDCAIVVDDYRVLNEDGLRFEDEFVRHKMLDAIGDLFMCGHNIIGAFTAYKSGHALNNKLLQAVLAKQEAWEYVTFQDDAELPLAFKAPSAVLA

Structure (SMILES)	IC50 [1] [nM]	IC50 [2] [nM]	MIC [3] [µg/mL]	MIC [4] [µg/mL]	MIC [5] [µg/mL]	MIC [6] [µg/mL]	MIC P. aeruginosa ATCC27835 ([3]; broth microdilution) [µg/mL]	MIC K. pneumoniae ATCC13883 ([4]; broth microdilution) [µg/mL]	MIC P. aeruginosa 209 PAO1 ([5]; broth microdilution) [µg/mL]	MIC E. coli ATCC25922 ([6]; broth microdilution) [µg/mL]	IC50 [7] [nM]
C[C@H](O)c1nccn1C/C=C/c1ccc(-c2ccc(O[C@@H]3C[C@H]3N)cc2)cc1 (racemic) [Compound 4, (S)-1-(1-((E)-3-(4′-((trans)-2-aminocyclopropoxy)-[1,1′-biphenyl]-4-yl)allyl)-1H-imidazol-2-yl)ethan-1-ol]	9.25	23.2	4 (≈ 10.7 µM)	0.12 (≈ 0.32 µM)	2 (≈ 5.33 µM)	0.12 (≈ 0.32 µM)					
C[C@H](O)c1nccn1[C@@H](/C=C/c1ccc(-c2ccc(OCC(CO)N(C)C)cc2)cc1)CO (mixture of isomers) [Compound 12, (2S,E)-4-(4′-(2-(dimethylamino)-3-hydroxypropoxy)-[1,1′-biphenyl]-4-yl)-2-(2-((S)-1-hydroxyethyl)-1H-imidazol-1-yl)but-3-en-1-ol]	82.5	69.2	4 (≈ 8.86 µM)	16 (≈ 35.4 µM)	4 (≈ 8.86 µM)	4 (≈ 8.86 µM)					
C[C@H](O)c1nccn1[C@@H](/C=C/c1ccc(-c2ccc(OCC(N)CO)cc2)cc1)CO (mixture of isomers) [Compound 25, (2S,E)-4-(4′-(2-amino-3-hydroxypropoxy)-[1,1′-biphenyl]-4-yl)-2-(2-((S)-1-hydroxyethyl)-1H-imidazol-1-yl)but-3-en-1-ol]	44.6	70.6					2 (≈ 4.72 µM)	4 (≈ 9.44 µM)	2 (≈ 4.72 µM)	2 (≈ 4.72 µM)	
C[C@H](O)c1nccn1[C@@H](/C=C/c1ccc(-c2ccc(O[C@H]3COC[C@@H]3N)cc2)cc1)CO (racemic) [Compound 34, (S,E)-4-(4′-(((trans)-4-aminotetrahydrofuran-3-yl)oxy)-[1,1′-biphenyl]-4-yl)-2-(2-((S)-1-hydroxyethyl)-1H-imidazol-1-yl)but-3-en-1-ol]	1.1	18.9	4 (≈ 9.18 µM)	2 (≈ 4.59 µM)	0.5 (≈ 1.15 µM)						1.9
C[C@H](O)c1nccn1[C@@H](/C=C/c1ccc(-c2ccc(O[C@H]3COC[C@@H]3O)cc2)cc1)CO (racemic) [Compound 35, (trans)-4-((4′-((S,E)-4-hydroxy-3-(2-((S)-1-hydroxyethyl)-1H-imidazol-1-yl)but-1-en-1-yl)-[1,1′-biphenyl]-4-yl)oxy)tetrahydrofuran-3-ol]	< 0.5	8.2	4 (≈ 9.16 µM)	2 (≈ 4.58 µM)	1 (≈ 2.29 µM)						0.9
CCOCC(O)COc1ccc(-c2ccc(/C=C/[C@@H](CO)n3ccnc3[C@H](C)O)cc2)cc1 (mixture of isomers) [Compound 36, (2S,E)-4-(4′-(3-ethoxy-2-hydroxypropoxy)-[1,1′-biphenyl]-4-yl)-2-(2-((S)-1-hydroxyethyl)-1H-imidazol-1-yl)but-3-en-1-ol]	< 0.5	21.3	4 (≈ 8.84 µM)	1 (≈ 2.21 µM)	2 (≈ 4.42 µM)						0.8
C[C@H](O)c1nccn1[C@@H](/C=C/c1ccc(-c2ccc(O[C@H]3C[C@@H]3N)cc2)cc1)CO (single isomer, unassigned) [Compound 14]	9.51	22.3	8 (≈ 19.7 µM)	2 (≈ 4.93 µM)	1 (≈ 2.47 µM)	1 (≈ 2.47 µM)					
C[C@H](O)c1nccn1C/C=C/c1ccc(-c2ccc(OC3CCN(CCO)CC3)cc2)cc1 [Compound 1, (S,E)-2-(4-((4′-(3-(2-(1-hydroxyethyl)-1H-imidazol-1-yl)prop-1-en-1-yl)-[1,1′-biphenyl]-4-yl)oxy)piperidin-1-yl)ethan-1-ol]	25.8	81	4 (≈ 8.94 µM)	1 (≈ 2.23 µM)	4 (≈ 8.94 µM)	1 (≈ 2.23 µM)					
C[C@H](O)c1nccn1C/C=C/c1ccc(-c2ccc(OC3CCN(CC(O)CO)CC3)cc2)cc1 (stereo partly drawn) [Compound 2, 3-(4-((4′-((E)-3-(2-((S)-1-hydroxyethyl)-1H-imidazol-1-yl)prop-1-en-1-yl)-[1,1′-biphenyl]-4-yl)oxy)piperidin-1-yl)propane-1,2-diol]	17	15.5	4 (≈ 8.38 µM)	2 (≈ 4.19 µM)	4 (≈ 8.38 µM)	1 (≈ 2.09 µM)					
C[C@H](O)c1nccn1C/C=C/c1ccc(-c2ccc(OC[C@H](N)CO)cc2)cc1 [Compound 3, (R)-2-amino-3-((4′-((E)-3-(2-((S)-1-hydroxyethyl)-1H-imidazol-1-yl)prop-1-en-1-yl)-[1,1′-biphenyl]-4-yl)oxy)propan-1-ol]	11.4	132	4 (≈ 10.2 µM)	8 (≈ 20.3 µM)	4 (≈ 10.2 µM)	2 (≈ 5.08 µM)					
C[C@H](O)c1nccn1[C@@H](/C=C/c1ccc(-c2ccc(OCC3(CO)COC3)cc2)cc1)CO [Compound 68, (S,E)-2-(2-((S)-1-hydroxyethyl)-1H-imidazol-1-yl)-4-(4′-((3-(hydroxymethyl)oxetan-3-yl)methoxy)-[1,1′-biphenyl]-4-yl)but-3-en-1-ol]			4 (≈ 8.88 µM)	2 (≈ 4.44 µM)	4 (≈ 8.88 µM)	1 (≈ 2.22 µM)					
CC(=O)O[C@@H]1C[C@H]1c1ccc(-c2ccc(/C=C/[C@@H](CO)n3ccnc3[C@H](C)O)cc2)cc1 [Compound 69, (1R,2S)-2-(4′-((S,E)-4-hydroxy-3-(2-((S)-1-hydroxyethyl)-1H-imidazol-1-yl)but-1-en-1-yl)-[1,1′-biphenyl]-4-yl)cyclopropyl acetate]			4	0.5	2	0.25					
C[C@H](O)c1nccn1[C@@H](/C=C/c1ccc(-c2ccc(C3CC3OC(CO)CO)cc2)cc1)CO (stereo partly drawn) [Compound 70, 2-(2-(4′-((S,E)-4-hydroxy-3-(2-((S)-1-hydroxyethyl)-1H-imidazol-1-yl)but-1-en-1-yl)-[1,1′-biphenyl]-4-yl)cyclopropoxy)propane-1,3-diol]			4 (≈ 8.61 µM)	8 (≈ 17.2 µM)	4 (≈ 8.61 µM)	2 (≈ 4.31 µM)					
C[C@H](O)c1nccn1[C@@H](/C=C/c1ccc(-c2ccc([C@@H]3C[C@H]3OCCO)cc2)cc1)CO [Compound 71, (S,E)-4-(4′-((1S,2R)-2-(2-hydroxyethoxy)cyclopropyl)-[1,1′-biphenyl]-4-yl)-2-(2-((S)-1-hydroxyethyl)-1H-imidazol-1-yl)but-3-en-1-ol]			4 (≈ 9.21 µM)	0.5 (≈ 1.15 µM)	2 (≈ 4.6 µM)	0.5 (≈ 1.15 µM)					
C[C@H](O)c1nccn1[C@@H](/C=C/c1ccc(-c2ccc(C3C[C@H]3OCC(N)CO)cc2)cc1)CO (stereo partly drawn) [Compound 72, (2S,E)-4-(4′-((1S,2R)-2-(2-amino-3-hydroxypropoxy)cyclopropyl)-[1,1′-biphenyl]-4-yl)-2-(2-((S)-1-hydroxyethyl)-1H-imidazol-1-yl)but-3-en-1-ol]			2 (≈ 4.31 µM)	8 (≈ 17.3 µM)	2 (≈ 4.31 µM)	2 (≈ 4.31 µM)					
C[C@H](O)c1nccn1[C@@H](/C=C/c1ccc(-c2ccc(O[C@@H]3CCC[C@H]3O)cc2)cc1)CO [Compound 73, (1R,2R)-2-((4′-((S,E)-4-hydroxy-3-(2-((S)-1-hydroxyethyl)-1H-imidazol-1-yl)but-1-en-1-yl)-[1,1′-biphenyl]-4-yl)oxy)cyclopentan-1-ol]			4 (≈ 9.21 µM)	1 (≈ 2.3 µM)	2 (≈ 4.6 µM)	0.5 (≈ 1.15 µM)					
C[C@H](O)c1nccn1[C@@H](/C=C/c1ccc(-c2ccc(OCC(N)(CO)CO)cc2)cc1)CO [Compound 74, 2-amino-2-(((4′-((S,E)-4-hydroxy-3-(2-((S)-1-hydroxyethyl)-1H-imidazol-1-yl)but-1-en-1-yl)-[1,1′-biphenyl]-4-yl)oxy)methyl)propane-1,3-diol]			1 (≈ 2.2 µM)	> 32	2 (≈ 4.41 µM)	8 (≈ 17.6 µM)					
C[C@H](O)c1nccn1[C@@H](/C=C/c1ccc(-c2ccc(C3CC(NCC#N)C3)cc2F)cc1)CO (stereo partly drawn) [Compound 75, 2-((3-(2-fluoro-4′-((S,E)-4-hydroxy-3-(2-((S)-1-hydroxyethyl)-1H-imidazol-1-yl)but-1-en-1-yl)-[1,1′-biphenyl]-4-yl)cyclobutyl)amino)acetonitrile]			4 (≈ 8.69 µM)	0.5 (≈ 1.09 µM)	2 (≈ 4.34 µM)	0.25 (≈ 0.543 µM)					
